Target: Dual specificity mitogen-activated protein kinase kinase 1 (Homo sapiens, UniProt Q02750)
Sequence (Q02750 whole entry): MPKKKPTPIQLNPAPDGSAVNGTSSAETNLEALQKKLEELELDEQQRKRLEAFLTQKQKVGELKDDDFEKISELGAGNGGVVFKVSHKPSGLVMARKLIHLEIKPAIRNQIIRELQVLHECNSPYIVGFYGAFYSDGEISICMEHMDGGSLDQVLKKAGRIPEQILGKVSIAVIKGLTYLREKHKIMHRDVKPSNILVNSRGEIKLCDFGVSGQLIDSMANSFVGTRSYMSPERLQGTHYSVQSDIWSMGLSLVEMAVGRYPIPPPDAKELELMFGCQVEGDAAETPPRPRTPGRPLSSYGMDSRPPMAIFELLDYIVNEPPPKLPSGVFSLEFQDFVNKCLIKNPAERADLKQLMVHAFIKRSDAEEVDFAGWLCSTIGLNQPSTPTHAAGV
Assay: Inhibition of full-length recombinant human His-tagged MAP2K1 expressed in baculovirus expression system by LanthaScreen assay
Settings: not given
With `O=C(NCC(F)(F)F)c1cc(-c2cnn3cc(-c4ccc(OCCN5CCCCC5)cc4)cnc23)cs1` the IC50 was 7200 nM. `Cn1cc(-c2cnc3c(-c4csc(C(=O)N[C@@H]5CCCC[C@@H]5N)c4)cnn3c2)cn1` (racemic) showed an IC50 of 120 nM.

Target: Mitogen-activated protein kinase 14 (Homo sapiens, UniProt Q16539)
Sequence (Q16539 whole entry): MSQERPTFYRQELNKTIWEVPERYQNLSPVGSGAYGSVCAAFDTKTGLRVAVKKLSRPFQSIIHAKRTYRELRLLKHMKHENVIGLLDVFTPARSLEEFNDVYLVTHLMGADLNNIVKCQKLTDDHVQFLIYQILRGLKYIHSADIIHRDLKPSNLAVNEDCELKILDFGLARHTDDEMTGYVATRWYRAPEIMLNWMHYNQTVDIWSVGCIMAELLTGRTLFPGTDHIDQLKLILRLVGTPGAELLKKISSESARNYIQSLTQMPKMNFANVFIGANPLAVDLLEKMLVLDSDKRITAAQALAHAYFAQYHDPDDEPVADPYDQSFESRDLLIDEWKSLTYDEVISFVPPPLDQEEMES
Assay: Inhibition of full-length recombinant human GST-tagged MAPK14 alpha expressed in Escherichia coli by Z'-LYTE assay
Settings: not given
`O=C(NCC(F)(F)F)c1cc(-c2cnn3cc(-c4ccc(OCCN5CCCCC5)cc4)cnc23)cs1` showed an IC50 of 1200 nM. Work on `Cn1cc(-c2cnc3c(-c4csc(C(=O)N[C@@H]5CCCC[C@@H]5N)c4)cnn3c2)cn1` (racemic) yielded an IC50 of 1400 nM.

Target: Glycogen synthase kinase-3 beta (Homo sapiens, UniProt P49841)
Sequence (P49841 whole entry): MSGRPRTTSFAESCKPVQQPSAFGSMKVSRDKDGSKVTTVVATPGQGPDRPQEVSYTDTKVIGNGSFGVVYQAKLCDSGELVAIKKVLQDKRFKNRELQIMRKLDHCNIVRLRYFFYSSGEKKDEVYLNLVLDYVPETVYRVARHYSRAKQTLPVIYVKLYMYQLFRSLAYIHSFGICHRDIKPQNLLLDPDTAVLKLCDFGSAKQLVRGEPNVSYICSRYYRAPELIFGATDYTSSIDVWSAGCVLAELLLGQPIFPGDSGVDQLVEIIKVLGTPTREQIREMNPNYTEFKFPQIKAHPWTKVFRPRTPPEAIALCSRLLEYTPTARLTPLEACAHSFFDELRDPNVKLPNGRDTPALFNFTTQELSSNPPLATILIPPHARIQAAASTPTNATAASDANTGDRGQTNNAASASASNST
Assay: Inhibition of full-length recombinant human His-tagged GSK3B expressed in baculovirus expression system by Z'-LYTE assay
Settings: not given
`O=C(NCC(F)(F)F)c1cc(-c2cnn3cc(-c4ccc(OCCN5CCCCC5)cc4)cnc23)cs1` showed an IC50 of 220 nM. In the case of `Cn1cc(-c2cnc3c(-c4csc(C(=O)N[C@@H]5CCCC[C@@H]5N)c4)cnn3c2)cn1` (racemic), the IC50 is reported as 23 nM.

Target: Tyrosine-protein kinase BTK (Homo sapiens, UniProt Q06187)
Assay: Inhibition of full-length recombinant human His-tagged BTK expressed in baculovirus expression system by Z'-LYTE assay
Settings: not given
Work on `O=C(NCC(F)(F)F)c1cc(-c2cnn3cc(-c4ccc(OCCN5CCCCC5)cc4)cnc23)cs1` yielded an IC50 of 290 nM. Work on `Cn1cc(-c2cnc3c(-c4csc(C(=O)N[C@@H]5CCCC[C@@H]5N)c4)cnn3c2)cn1` (racemic) yielded an IC50 of under 1 nM.

Tested on: not listed separately
Assay: Volume of distribution in Sprague-Dawley rat at 1 mL/kg, iv administered through catheter or 5 mL/kg administered through gastric gavage measured after 24 hrs by LC-MS/MS analysis
Assay type: ADME, organism-based
Settings: in vivo
For `O=C(NCC(F)(F)F)c1cc(-c2cnn3cc(-c4ccc(OCCN5CCCCC5)cc4)cnc23)cs1`, the Vd was 14.2 L/kg. For `Cn1cc(-c2cnc3c(-c4csc(C(=O)N[C@@H]5CCCC[C@@H]5N)c4)cnn3c2)cn1` (racemic), the Vd was 29 L/kg.

Target: RAC-alpha serine/threonine-protein kinase (Homo sapiens, UniProt P31749)
Assay: Inhibition of full-length recombinant human His-tagged AKT1-alpha expressed in baculovirus expression system by Z'-LYTE assay
Settings: not given
Work on `O=C(NCC(F)(F)F)c1cc(-c2cnn3cc(-c4ccc(OCCN5CCCCC5)cc4)cnc23)cs1` yielded an IC50 of 24000 nM. `Cn1cc(-c2cnc3c(-c4csc(C(=O)N[C@@H]5CCCC[C@@H]5N)c4)cnn3c2)cn1` (racemic) showed an IC50 of 80 nM.

Target: Cyclin-dependent kinase 2 (Homo sapiens, UniProt P24941)
Assay: Inhibition of full-length recombinant human His-tagged CDK2 expressed in baculovirus expression system by Z'-LYTE assay
Settings: not given
For `O=C(NCC(F)(F)F)c1cc(-c2cnn3cc(-c4ccc(OCCN5CCCCC5)cc4)cnc23)cs1`, the IC50 was 12 nM. In the case of `Cn1cc(-c2cnc3c(-c4csc(C(=O)N[C@@H]5CCCC[C@@H]5N)c4)cnn3c2)cn1` (racemic), the IC50 is reported as 2.2 nM.

Target: G protein-coupled receptor kinase 6 (Homo sapiens, UniProt P43250)
Sequence (P43250 whole entry): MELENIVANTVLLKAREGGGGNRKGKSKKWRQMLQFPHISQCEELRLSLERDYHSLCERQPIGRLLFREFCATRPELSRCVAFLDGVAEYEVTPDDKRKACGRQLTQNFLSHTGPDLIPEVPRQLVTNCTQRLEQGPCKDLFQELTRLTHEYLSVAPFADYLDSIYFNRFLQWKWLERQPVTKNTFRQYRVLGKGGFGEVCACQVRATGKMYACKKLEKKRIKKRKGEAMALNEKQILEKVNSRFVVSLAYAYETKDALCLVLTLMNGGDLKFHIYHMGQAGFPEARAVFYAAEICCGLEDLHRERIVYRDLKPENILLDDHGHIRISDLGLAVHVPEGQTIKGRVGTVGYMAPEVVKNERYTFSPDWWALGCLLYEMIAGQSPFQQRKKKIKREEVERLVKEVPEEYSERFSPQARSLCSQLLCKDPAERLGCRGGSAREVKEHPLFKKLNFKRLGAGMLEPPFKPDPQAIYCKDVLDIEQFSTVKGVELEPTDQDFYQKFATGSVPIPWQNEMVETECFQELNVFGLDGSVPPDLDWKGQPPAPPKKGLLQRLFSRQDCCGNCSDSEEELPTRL
Assay: Inhibition of full-length recombinant human GST-tagged GRK6 expressed in baculovirus expression system by Z'-LYTE assay
Settings: not given
Compound `O=C(NCC(F)(F)F)c1cc(-c2cnn3cc(-c4ccc(OCCN5CCCCC5)cc4)cnc23)cs1` has an IC50 of 17000 nM. `Cn1cc(-c2cnc3c(-c4csc(C(=O)N[C@@H]5CCCC[C@@H]5N)c4)cnn3c2)cn1` (racemic) showed an IC50 of 500 nM.

Target: T1, Mitogen-activated protein kinase 13 (Homo sapiens, UniProt O15264)
T1 sequence (O15264 whole entry): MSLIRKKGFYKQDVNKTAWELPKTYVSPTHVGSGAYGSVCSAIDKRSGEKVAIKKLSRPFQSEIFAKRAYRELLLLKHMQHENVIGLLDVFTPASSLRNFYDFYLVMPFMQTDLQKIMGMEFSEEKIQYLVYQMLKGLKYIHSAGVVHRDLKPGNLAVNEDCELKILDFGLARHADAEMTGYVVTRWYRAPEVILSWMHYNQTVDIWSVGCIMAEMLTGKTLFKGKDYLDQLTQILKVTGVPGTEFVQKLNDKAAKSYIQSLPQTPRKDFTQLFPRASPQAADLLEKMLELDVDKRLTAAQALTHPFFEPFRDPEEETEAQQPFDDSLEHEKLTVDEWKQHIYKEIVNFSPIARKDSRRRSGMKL
Assay: Inhibition of full-length recombinant human His-tagged MAPK13 expressed in baculovirus expression system by Z'-LYTE assay
Settings: not given
`O=C(NCC(F)(F)F)c1cc(-c2cnn3cc(-c4ccc(OCCN5CCCCC5)cc4)cnc23)cs1` showed an IC50 of 13000 nM. With `Cn1cc(-c2cnc3c(-c4csc(C(=O)N[C@@H]5CCCC[C@@H]5N)c4)cnn3c2)cn1` (racemic) the IC50 was 39 nM.

Target: T2, Receptor-type tyrosine-protein kinase FLT3 (Homo sapiens, UniProt P36888)
T2 sequence (P36888 whole entry): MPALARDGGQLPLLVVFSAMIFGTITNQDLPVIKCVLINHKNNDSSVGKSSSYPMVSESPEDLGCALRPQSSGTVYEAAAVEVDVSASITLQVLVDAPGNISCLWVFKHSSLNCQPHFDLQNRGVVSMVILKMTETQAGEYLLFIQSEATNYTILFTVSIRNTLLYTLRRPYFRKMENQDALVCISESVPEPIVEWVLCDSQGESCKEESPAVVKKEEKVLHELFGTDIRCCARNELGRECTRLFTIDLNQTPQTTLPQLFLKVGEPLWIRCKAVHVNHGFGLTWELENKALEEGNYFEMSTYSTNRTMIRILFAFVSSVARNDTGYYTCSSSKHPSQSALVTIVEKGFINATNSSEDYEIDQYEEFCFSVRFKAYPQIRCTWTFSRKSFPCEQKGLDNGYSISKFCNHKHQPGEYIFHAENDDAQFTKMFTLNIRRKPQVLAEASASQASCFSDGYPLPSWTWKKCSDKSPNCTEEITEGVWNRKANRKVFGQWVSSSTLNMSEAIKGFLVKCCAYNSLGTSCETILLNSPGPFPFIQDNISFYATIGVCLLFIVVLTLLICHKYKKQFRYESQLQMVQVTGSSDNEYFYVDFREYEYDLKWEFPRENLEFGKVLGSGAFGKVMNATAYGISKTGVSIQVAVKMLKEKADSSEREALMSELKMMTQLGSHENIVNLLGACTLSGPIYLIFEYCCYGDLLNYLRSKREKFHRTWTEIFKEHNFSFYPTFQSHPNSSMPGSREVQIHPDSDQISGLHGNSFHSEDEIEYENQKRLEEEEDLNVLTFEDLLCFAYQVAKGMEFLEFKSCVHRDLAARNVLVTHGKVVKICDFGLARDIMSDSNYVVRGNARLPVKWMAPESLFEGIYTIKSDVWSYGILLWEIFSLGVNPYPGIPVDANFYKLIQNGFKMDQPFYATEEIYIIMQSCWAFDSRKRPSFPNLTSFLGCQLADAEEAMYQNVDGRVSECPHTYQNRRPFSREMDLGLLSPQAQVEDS
Assay: Inhibition of recombinant human His-tagged cytoplasmic FLT3 expressed in baculovirus expression system by Z'-LYTE assay
Settings: not given
Compound `O=C(NCC(F)(F)F)c1cc(-c2cnn3cc(-c4ccc(OCCN5CCCCC5)cc4)cnc23)cs1` has an IC50 of under 10 nM. With `Cn1cc(-c2cnc3c(-c4csc(C(=O)N[C@@H]5CCCC[C@@H]5N)c4)cnn3c2)cn1` (racemic) the IC50 was 1.9 nM.

Target: Leucine-rich repeat serine/threonine-protein kinase 2 (Homo sapiens, UniProt Q5S007)
Assay: Inhibition of recombinant human GST-tagged LRRK2 catalytic domain expressed in baculovirus expression system by Adapta assay
Settings: not given
`O=C(NCC(F)(F)F)c1cc(-c2cnn3cc(-c4ccc(OCCN5CCCCC5)cc4)cnc23)cs1` gave an IC50 of 14 nM. With `Cn1cc(-c2cnc3c(-c4csc(C(=O)N[C@@H]5CCCC[C@@H]5N)c4)cnn3c2)cn1` (racemic) the IC50 was 3.1 nM.

Target: Rho-associated protein kinase 1 (Homo sapiens, UniProt Q13464)
Sequence (Q13464 whole entry, the tested form may be a part): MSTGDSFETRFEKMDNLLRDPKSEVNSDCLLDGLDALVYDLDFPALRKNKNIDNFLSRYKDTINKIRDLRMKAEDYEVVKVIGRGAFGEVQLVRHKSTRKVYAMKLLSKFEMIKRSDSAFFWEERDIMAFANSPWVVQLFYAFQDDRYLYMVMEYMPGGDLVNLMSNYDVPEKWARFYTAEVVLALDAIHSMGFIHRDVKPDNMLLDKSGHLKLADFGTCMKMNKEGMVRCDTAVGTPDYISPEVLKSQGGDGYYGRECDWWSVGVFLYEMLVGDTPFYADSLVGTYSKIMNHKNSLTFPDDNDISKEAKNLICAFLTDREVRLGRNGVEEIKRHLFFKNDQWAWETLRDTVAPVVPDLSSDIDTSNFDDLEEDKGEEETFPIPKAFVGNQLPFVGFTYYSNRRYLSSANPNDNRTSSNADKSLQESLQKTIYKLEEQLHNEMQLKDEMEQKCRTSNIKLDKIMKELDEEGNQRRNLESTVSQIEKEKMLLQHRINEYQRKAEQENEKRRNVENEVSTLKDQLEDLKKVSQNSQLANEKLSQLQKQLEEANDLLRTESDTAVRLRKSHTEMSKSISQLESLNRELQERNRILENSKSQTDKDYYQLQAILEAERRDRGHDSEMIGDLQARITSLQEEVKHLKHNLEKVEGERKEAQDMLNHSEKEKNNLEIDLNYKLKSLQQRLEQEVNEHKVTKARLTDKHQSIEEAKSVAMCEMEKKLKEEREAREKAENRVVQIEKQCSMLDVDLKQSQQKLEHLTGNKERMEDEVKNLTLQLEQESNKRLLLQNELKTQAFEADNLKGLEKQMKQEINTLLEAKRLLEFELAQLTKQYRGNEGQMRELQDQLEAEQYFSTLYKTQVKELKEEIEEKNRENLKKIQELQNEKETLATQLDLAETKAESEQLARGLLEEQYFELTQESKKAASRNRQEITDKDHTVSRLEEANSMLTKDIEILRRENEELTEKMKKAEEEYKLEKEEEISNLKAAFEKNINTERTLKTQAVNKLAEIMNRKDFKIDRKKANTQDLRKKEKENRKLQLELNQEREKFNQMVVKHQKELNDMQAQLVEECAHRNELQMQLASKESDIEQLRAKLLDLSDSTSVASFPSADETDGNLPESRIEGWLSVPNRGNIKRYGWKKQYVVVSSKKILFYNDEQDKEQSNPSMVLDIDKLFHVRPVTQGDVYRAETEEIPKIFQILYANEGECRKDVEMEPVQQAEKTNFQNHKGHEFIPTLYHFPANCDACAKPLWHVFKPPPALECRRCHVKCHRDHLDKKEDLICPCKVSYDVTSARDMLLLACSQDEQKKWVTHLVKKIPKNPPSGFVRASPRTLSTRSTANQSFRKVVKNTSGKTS
Assay: Inhibition of recombinant human GST-tagged ROCK1 catalytic domain expressed in baculovirus expression system by Z'-LYTE assay
Settings: not given
For `O=C(NCC(F)(F)F)c1cc(-c2cnn3cc(-c4ccc(OCCN5CCCCC5)cc4)cnc23)cs1`, the IC50 was 360 nM. Compound `Cn1cc(-c2cnc3c(-c4csc(C(=O)N[C@@H]5CCCC[C@@H]5N)c4)cnn3c2)cn1` (racemic) has an IC50 of 17 nM.

Target: Tyrosine-protein kinase JAK1 (Homo sapiens, UniProt P23458)
Sequence (P23458 whole entry, the tested form may be a part): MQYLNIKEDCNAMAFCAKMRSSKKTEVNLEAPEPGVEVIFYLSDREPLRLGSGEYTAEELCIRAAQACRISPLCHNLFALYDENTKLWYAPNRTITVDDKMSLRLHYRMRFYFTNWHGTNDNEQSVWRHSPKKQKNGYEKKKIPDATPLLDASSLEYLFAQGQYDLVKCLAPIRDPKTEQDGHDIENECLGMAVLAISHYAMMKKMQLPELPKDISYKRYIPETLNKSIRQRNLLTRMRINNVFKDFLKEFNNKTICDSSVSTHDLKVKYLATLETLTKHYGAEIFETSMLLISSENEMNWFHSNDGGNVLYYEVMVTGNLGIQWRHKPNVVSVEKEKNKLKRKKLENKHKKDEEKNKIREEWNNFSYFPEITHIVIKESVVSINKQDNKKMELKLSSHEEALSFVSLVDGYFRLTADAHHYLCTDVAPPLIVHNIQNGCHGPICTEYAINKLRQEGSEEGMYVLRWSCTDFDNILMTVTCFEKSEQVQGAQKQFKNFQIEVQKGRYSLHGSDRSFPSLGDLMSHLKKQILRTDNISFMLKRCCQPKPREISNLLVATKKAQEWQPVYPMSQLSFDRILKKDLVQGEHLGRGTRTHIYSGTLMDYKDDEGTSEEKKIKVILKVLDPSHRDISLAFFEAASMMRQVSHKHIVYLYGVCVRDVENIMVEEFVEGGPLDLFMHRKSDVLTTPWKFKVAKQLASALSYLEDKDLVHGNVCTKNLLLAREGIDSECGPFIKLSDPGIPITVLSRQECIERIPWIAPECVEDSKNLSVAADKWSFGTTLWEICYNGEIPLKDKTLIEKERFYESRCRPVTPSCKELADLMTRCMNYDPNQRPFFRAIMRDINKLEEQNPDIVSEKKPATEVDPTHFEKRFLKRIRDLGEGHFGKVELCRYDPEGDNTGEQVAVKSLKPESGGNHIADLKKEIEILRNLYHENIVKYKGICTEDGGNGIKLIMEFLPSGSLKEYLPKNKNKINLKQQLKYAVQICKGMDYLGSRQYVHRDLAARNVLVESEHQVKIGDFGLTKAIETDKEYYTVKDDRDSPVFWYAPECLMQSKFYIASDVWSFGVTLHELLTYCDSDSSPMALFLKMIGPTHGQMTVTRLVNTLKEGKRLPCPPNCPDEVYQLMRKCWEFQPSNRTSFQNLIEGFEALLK
Assay: Inhibition of recombinant human GST-tagged cytoplasmic JAK1 (866 to 1154 residues) catalytic domain expressed in baculovirus expression system by Z'-LYTE assay
Settings: not given
Compound `O=C(NCC(F)(F)F)c1cc(-c2cnn3cc(-c4ccc(OCCN5CCCCC5)cc4)cnc23)cs1` has an IC50 of 2300 nM. Compound `Cn1cc(-c2cnc3c(-c4csc(C(=O)N[C@@H]5CCCC[C@@H]5N)c4)cnn3c2)cn1` (racemic) has an IC50 of 220 nM.

Target: Serine/threonine-protein kinase 26 (Homo sapiens, UniProt Q9P289)
Sequence (Q9P289 whole entry): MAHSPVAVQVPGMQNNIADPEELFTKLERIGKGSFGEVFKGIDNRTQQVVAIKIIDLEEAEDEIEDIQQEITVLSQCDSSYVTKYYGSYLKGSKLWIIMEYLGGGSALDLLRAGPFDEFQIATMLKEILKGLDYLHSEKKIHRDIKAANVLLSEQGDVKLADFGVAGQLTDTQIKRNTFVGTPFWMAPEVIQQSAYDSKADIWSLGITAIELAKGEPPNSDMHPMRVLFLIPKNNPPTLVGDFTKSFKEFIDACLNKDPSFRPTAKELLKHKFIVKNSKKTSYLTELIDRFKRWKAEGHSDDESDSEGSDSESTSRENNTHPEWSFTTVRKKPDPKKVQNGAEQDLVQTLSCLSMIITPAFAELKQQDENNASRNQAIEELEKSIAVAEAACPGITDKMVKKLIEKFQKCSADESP
Assay: Inhibition of full-length recombinant human GST-tagged MST4 expressed in baculovirus expression system by Z'-LYTE assay
Settings: not given
With `O=C(NCC(F)(F)F)c1cc(-c2cnn3cc(-c4ccc(OCCN5CCCCC5)cc4)cnc23)cs1` the IC50 was 1100 nM. `Cn1cc(-c2cnc3c(-c4csc(C(=O)N[C@@H]5CCCC[C@@H]5N)c4)cnn3c2)cn1` (racemic) showed an IC50 of 6.3 nM.

Target: RAC-beta serine/threonine-protein kinase (Homo sapiens, UniProt P31751)
Assay: Inhibition of full-length recombinant human His-tagged AKT2 expressed in baculovirus expression system by Z'-LYTE assay
Settings: not given
With `O=C(NCC(F)(F)F)c1cc(-c2cnn3cc(-c4ccc(OCCN5CCCCC5)cc4)cnc23)cs1` the IC50 was 23000 nM. In the case of `Cn1cc(-c2cnc3c(-c4csc(C(=O)N[C@@H]5CCCC[C@@H]5N)c4)cnn3c2)cn1` (racemic), the IC50 is reported as 430 nM.

Target: Mast/stem cell growth factor receptor Kit (Homo sapiens, UniProt P10721)
Assay: Inhibition of recombinant human His-tagged cytoplasmic KIT expressed in baculovirus expression system by Z'-LYTE assay
Settings: not given
Work on `O=C(NCC(F)(F)F)c1cc(-c2cnn3cc(-c4ccc(OCCN5CCCCC5)cc4)cnc23)cs1` yielded an IC50 of 2700 nM. In the case of `Cn1cc(-c2cnc3c(-c4csc(C(=O)N[C@@H]5CCCC[C@@H]5N)c4)cnn3c2)cn1` (racemic), the IC50 is reported as 690 nM.

Target: Insulin receptor (Homo sapiens, UniProt P06213)
Assay: Inhibition of recombinant human GST-tagged cytoplasmic INSR (1011 to 1382 residues) expressed in baculovirus expression system by Z'-LYTE assay
Settings: not given
With `O=C(NCC(F)(F)F)c1cc(-c2cnn3cc(-c4ccc(OCCN5CCCCC5)cc4)cnc23)cs1` the IC50 was 55000 nM. For `Cn1cc(-c2cnc3c(-c4csc(C(=O)N[C@@H]5CCCC[C@@H]5N)c4)cnn3c2)cn1` (racemic), the IC50 was over 10000 nM.

Target: Fibroblast growth factor receptor 2 (Homo sapiens, UniProt P21802)
Assay: Inhibition of recombinant human His-tagged cytoplasmic FGFR2 expressed in baculovirus expression system by Z'-LYTE assay
Settings: not given
Work on `O=C(NCC(F)(F)F)c1cc(-c2cnn3cc(-c4ccc(OCCN5CCCCC5)cc4)cnc23)cs1` yielded an IC50 of 70 nM. For `Cn1cc(-c2cnc3c(-c4csc(C(=O)N[C@@H]5CCCC[C@@H]5N)c4)cnn3c2)cn1` (racemic), the IC50 was 11 nM.

Target: CDK9/cyclin T1 (Homo sapiens, UniProt P50750)
Assay: Inhibition of full-length recombinant human His-tagged CDK9/cyclin T1 expressed in baculovirus expression system by Adapta assay
Settings: not given
Compound `O=C(NCC(F)(F)F)c1cc(-c2cnn3cc(-c4ccc(OCCN5CCCCC5)cc4)cnc23)cs1` has an IC50 of 45 nM. Compound `Cn1cc(-c2cnc3c(-c4csc(C(=O)N[C@@H]5CCCC[C@@H]5N)c4)cnn3c2)cn1` (racemic) has an IC50 of 12 nM.
